From patent publication EP4722205A1, “HETEROCYCLIC COMPOUND AND NOXIOUS ARTHROPOD-CONTROLLING COMPOSITION CONTAINING SAME” (Sumitomo Chemical Company, Limited, priority 2023, dated 2024)

Experiments:
Type in all cases: in vivo
[1] = tested on: cotton aphids (Aphis gossypii); assay: Test Method 1: foliar spray on cucumber seedling infested with cotton aphids (Formulation example 1); conditions: 120 h, spray 10 mL/seedling, examined after 5 days, 25°C, read-out: controlling value
[2] = tested on: diamondback moth (Plutella xylostella); assay: Test Method 4: sprayed cabbage leaves fed to second instar diamondback moth; conditions: 120 h, second instar larvae, after 5 days, 25°C, read-out: mortality of insects
Description: (§1) Next, an efficacy of the present compound on controlling harmful arthropods is shown by Test examples. The following tests in the test examples below were conducted at 25°C.
Test compounds are made to a formulation according to a similar method to that described in the Formulation example 1, and thereto is added water containing 0.03 v/v% of Shindain (registered trademark) to prepare a diluted solution containing a prescribed concentration of the test compound.
(§2) Cabbage (Brassicae oleracea) seedling (on the developmental stage of the second to third true leaf) is planted in a cup, and the diluted solutions are sprayed into the seedling at a ratio of 20 mL/seedling. Thereafter, the stem and leaf thereof are cut out and then is installed into a cup that is covered with filter paper on the bed of the cup. Five (5) diamondback moth (Plutella xylostella) at the second instar larval stage are released into the cup. After 5 days, the number of the surviving insects is counted, and the mortality of insects is calculated by the following equation. [formula]

[3] = tested on: Western corn rootworms (Diabrotica virgifera virgifera); assay: Test Method 5: corn seedling immersion, Western corn rootworm; conditions: 120 h, read-out: mortality of insects
Description: as §1
Each 1 mg of the test compounds is dissolved into 50 µL of a mixed solution of polyoxyethylene sorbitan monolaurate and acetone (polyoxyethylene sorbitan monolaurate: acetone = 5 : 95 (v/v ratio)). Thereto is added water containing 0.03% by volume of Shindain (registered trademark) to prepare a diluted solution containing a prescribed concentration of the test compound.
A young entire seedling of Corns (Zea mays) is immersed into the diluted solution for 30 seconds. Thereafter, each two grains of the seedlings are installed in a plastic petri dish ([…]), and 10 Western corn rootworms (Diabrotica virgifera virgifera) at the second instar larval stage are released into the dish. After 5 days, the number of the dead insects is counted, and the mortality of insects is calculated by the following equation. Mortality(%) = (Numberofdeadinsects/10) × 100 [formula]

[4] = tested on: diamondback moth (Plutella xylostella); assay: Test Method 10: sprayed cabbage seedling, third instar diamondback moth (Formulation example 5); conditions: 144 h, third instar larvae, after 6 days, 25°C, read-out: controlling value
Description: (§3) The following tests in the test examples below were conducted at 25°C.
(§4) Cabbage (Brassicae oleracea) seedling (on the developmental stage of the third to fourth true leaf) is planted in a cup, and the diluted solutions are sprayed into the seedling at a ratio of 20 mL/seedling. Thereafter, ten (10) diamondback moth (Plutella xylostella) at the third instar larval stage are released onto the seedling. After 6 days, the number of the surviving insects is counted, and the mortality of insects is calculated by the following equation. [formula]

[5] = tested on: cotton aphids (Aphis gossypii); assay: Test Method 11: foliar spray on cucumber seedling infested with cotton aphids (Formulation example 5); conditions: 120 h, spray 10 mL/seedling, examined after 5 days, 25°C, read-out: controlling value
[6] = tested on: common house mosquitos (Culex pipiens pallens); assay: Test Method 12: mosquito larvae released into diluted solution; conditions: 24 h, last instar larvae, after 1 day, 25°C, read-out: controlling value
Description: as §3
Into the diluted solution, 30 common house mosquitos (Culex pipiens pallens) at the last instar larval stage are released, and after 1 day, the state of the house mosquito larvae is examined, and the mortality of insects is calculated by the following equation. [formula]

[7] = tested on: cotton worm (Spodoptera litura); assay: Test Method 3: sprayed cabbage leaves fed to second instar cotton worm; conditions: 120 h, second instar larvae, after 5 days, 25°C, read-out: mortality of insects
Description: as §3
as §2, with “cotton worm (Spodoptera litura)” for “diamondback moth (Plutella xylostella)”

[8] = tested on: housefly (Musca domestica); assay: Test Method 8: coated container contact test, housefly; conditions: 24 h, 40 mg/m^2, female adults, after one (1) day, 25°C, read-out: mortality of insects
Description: as §1
(§5) Acetone solution in which test compounds are adjusted to 800 ppm are prepared, and the solution is poured into a container having an internal volume of 20 mL, and the solution is coated uniformly on an inner face of the container such that the test compound is made to be 40 mg/m^2, and the container is then dried.
Five (5) housefly (Musca domestica) female adults are placed in the container, and the cup is covered with the lid. After the prescribed timing is passed, the state of the housefly is examined, and the mortality of insects is calculated by the following equation. [formula]

[9] = tested on: cotton worm (Spodoptera litura); assay: Test Method 9: sprayed cabbage seedling, third instar cotton worm (Formulation example 5); conditions: 144 h, third instar larvae, after 6 days, 25°C, read-out: controlling value
Description: as §3
as §4, with “cotton worm (Spodoptera litura)” for “diamondback moth (Plutella xylostella)”

[10] = tested on: German cockroach (Blattella germanica); assay: Test Method 6: coated container contact test, German cockroach; conditions: 72 h, read-out: mortality of insects
Description: as §1
as §5, with “50” for “20”
Five (5) German cockroach (Blattella germanica) male adults are placed in the container, and the cup is covered with the lid. After the prescribed timing is passed, the state of the German cockroach is examined, and the mortality of insects is calculated by the following equation. [formula]

| Structure (SMILES) | mortality at 500 ppm [1] [%] | mortality at 500 ppm [2] [%] | mortality at 200 ppm [3] [%] | mortality at 50 ppm [4] [%] | mortality at 200 ppm [4] [%] | mortality at 50 ppm [5] [%] | mortality at 200 ppm [5] [%] | mortality at 3.5 ppm [6] [%] | mortality at 500 ppm [7] [%] | mortality at 40 mg/m2 [8] [%] | mortality at 50 ppm [9] [%] | mortality at 200 ppm [9] [%] | mortality at 40 mg/m2 [10] [%] |
| --- | --- | --- | --- | --- | --- | --- | --- | --- | --- | --- | --- | --- | --- |
| CCS(=O)(=O)c1c(C(=O)N(C)c2nc3ccc(C(F)(F)F)cc3s2)nc2ccc(I)cn12 [compound 26] | ≥ 90 | ≥ 80 | ≥ 80 | ≥ 80 | ≥ 80 | ≥ 90 | ≥ 90 | ≥ 90 |  |  |  |  |  |
| CCS(=O)(=O)c1c(C(=O)N(C)c2nc3ccc(F)c(F)c3s2)nc2ccc(I)cn12 [compound 33] | ≥ 90 | ≥ 80 | ≥ 80 | ≥ 80 | ≥ 80 | ≥ 90 | ≥ 90 | ≥ 90 | ≥ 80 | ≥ 80 | ≥ 80 | ≥ 80 |  |
| CCS(=O)(=O)c1c(C(=O)N(C)c2nc3cc(F)c(F)cc3s2)nc2ccc(I)cn12 [compound 34] | ≥ 90 | ≥ 80 | ≥ 80 | ≥ 80 | ≥ 80 | ≥ 90 | ≥ 90 | ≥ 90 | ≥ 80 | ≥ 80 | ≥ 80 | ≥ 80 |  |
| CCS(=O)(=O)c1c(C(=O)N(C)c2nc3cc(F)c(F)c(F)c3s2)nc2ccc(Br)cn12 [compound 44] | ≥ 90 | ≥ 80 |  | ≥ 80 | ≥ 80 |  | ≥ 90 | ≥ 90 | ≥ 80 | ≥ 80 | ≥ 80 | ≥ 80 | ≥ 80 |
| CCS(=O)(=O)c1c(C(=O)N(C)c2nc3c(F)c(F)c(F)c(F)c3s2)nc2ccc(I)cn12 [compound 77] |  | ≥ 80 | ≥ 80 |  |  |  |  |  | ≥ 80 | ≥ 80 | ≥ 80 | ≥ 80 |  |
| CCS(=O)(=O)c1c(C(=O)N(C)c2nc3cc(Cl)c(F)cc3s2)nc2ccc(I)cn12 [compound 101] |  | ≥ 80 | ≥ 80 | ≥ 80 | ≥ 80 |  |  |  |  |  | ≥ 80 | ≥ 80 |  |
| CCS(=O)(=O)c1ccc(NC)nc1C(=O)N(C)c1nc2cc(F)c(F)c(F)c2s1 [compound 138] | ≥ 90 | ≥ 80 |  | ≥ 80 | ≥ 80 | ≥ 90 | ≥ 90 | ≥ 90 | ≥ 80 | ≥ 80 | ≥ 80 | ≥ 80 |  |
| CCS(=O)(=O)c1ccc(NC2CC2)nc1C(=O)N(C)c1nc2cc(F)c(F)c(F)c2s1 [compound 139] |  | ≥ 80 |  | ≥ 80 | ≥ 80 | ≥ 90 | ≥ 90 | ≥ 90 | ≥ 80 | ≥ 80 | ≥ 80 | ≥ 80 |  |
